Results as given in patent US11202757B2, “Dry powder compositions for intranasal delivery” (Formulex Pharma Innovations Ltd., priority 2017, dated 2021).
Structures can show the parent of a compound that is named as a salt.

Experiment: Particle size analysis (Malvern laser diffraction)
Type: physicochemical
Conditions: for size range of the active agent particle population: laser diffraction, active agent population of the composition
Procedure: (§1) The spray-drying process was carried out using the Mini Spray Dryer B-290 of Büchi Labortechnik AG. A magnetic stirrer (Fried Electric) was placed under the receiver (receiving chamber), a magnetic bar of appropriate size was inserted into the receiver, and then the diluent was added. […] Quantification was performed using HPLC and a Dionex HPLC instrument. A FEI Quanta-200 Scanning Electron Microscope (SEM) equipped with an Everhart-Thornley Detector was used to obtain the images of the spray-dried powder. The accelerating voltage of 20 kV was applied to provide magnification from 250 to 10,000 times. In addition, an X-ray Element Analysis Detector (Link ISIS, Oxford Instruments, GB) was used to determine the drug and particle identity and their distribution throughout DPI. Particle size was measured using the Malvern Mastersizer 3000 series based on the Light Diffraction method.
as §1, with “England)” for “GB)”

[1] = estimated in the range of 0-40 μm

| Molecule | size range of the active agent particle population | D(10) of sumatriptan succinate alone [1] [μm] | D(50) of sumatriptan succinate alone [1] [μm] | D(90) of sumatriptan succinate alone [1] [μm] | D(99) of sumatriptan succinate alone [1] [μm] |
| --- | --- | --- | --- | --- | --- |
| COc1ccc2c3c1O[C@H]1C(=O)CC[C@@]4(O)[C@@H](C2)N(C)CC[C@]314.Cl [oxycodone hydrochloride] | 3-30 μm |  |  |  |  |
| CC(=O)Nc1ccc(O)cc1 [paracetamol] | 2-30 μm |  |  |  |  |
| CNS(=O)(=O)Cc1ccc2[nH]cc(CCN(C)C)c2c1 [sumatriptan succinate] | 5-25 μm | 5.2 | 11.2 | 20.1 | 27.1 |
| C=CCN1CC[C@]23c4c5ccc(O)c4O[C@H]2C(=O)CC[C@@]3(O)[C@H]1C5 [naloxone hydrochloride] | 5-30 μm |  |  |  |  |
| insulin-sodium chloride: small spherical particles of insulin-sodium chloride in the insulin composition | 5-35 μm |  |  |  |  |
